System: p21 mRNA
Assay: Radiation-induced p21 mRNA induction in heparinized whole blood incubated with dietary supplements (FIG. 5)
Type: cell-based, human
Conditions: heparinized whole blood of a single individual, EGC 10 μM, rLA 10 μg/mL, Cur 1 μM; for radiation-induced p21 expression: 1 hour at 37° C. with supplement, 1 Gy ionizing radiation, another 2 hours at 37° C.; for p21 levels on control blood (no radiation) / background p21 levels: incubated with supplement at 37° C., without radiation
Procedure: The protocol for measuring mRNA levels employed in this example was as follows. The assay procedure consists of 3 major steps: 1) leukocyte isolation and lysis on filterplates, 2) mRNA isolation, reverse primer hybridization, and cDNA synthesis in oligo(dT)-immobilized microplates, and 3) real time quantitative PCR. In brief, filterplates were placed over collection plates, and 150 μL 5 mmol/L Tris, pH 7.4, was applied to wet the filter membranes. Following centrifugation at 120×g for 1 min at 4° C. to remove solution from the filterplates, 50 μL of well-mixed blood samples were applied to each well and immediately centrifuged at 120×g for 2 min at 4° C., followed by washing of each well with 300 μL phosphate buffered saline (PBS) once with centrifugation at 2000×g for 5 min at 4° C. Then, 60 μL stock lysis buffer (see below), supplemented with 1% 2-mercaptoethanol (Bio Rad), 0.5 mg/mL proteinase K (Pierce), 0.1 mg/mL salmon sperm DNA (5 Prime Eppendorf/Brinkmann), 0.1 mg/mL E. coli tRNA (Sigma), […] each of specific reverse primers, and 10^7 molecules/mL of synthetic RNA34 as an internal standard, were applied to the filterplates, followed by incubation at 37° C. for 10 min. The filterplates were then placed over oligo(dT)-immobilized microplates (GenePlate, RNAture), and centrifuged at 2000×g for 5 min at 4° C. Following overnight storage at 4° C., the microplates were washed with 100 μL plain lysis buffer 3 times, and then with 150 μL wash buffer (0.5 mol/L NaCl, 10 mmol/L Tris, pH 7.4, 1 mmol/L EDTA) 3 times at 4° C. The cDNA was directly synthesized in each well by adding 30 μL buffer containing 1×RT-buffer (50 mmol/L KCl, 10 mmol/L Tris-HCl, pH 8.3, 5.5 mmol/L MgCl2, no dithiothreitol), 1.25 mmol/L each of dNTP, 4 units rRNasin, and 80 units of MMLV reverse transcriptase (Promega) (without primers), and incubation at 37° C. for 2 hours. The resultant 4 μL cDNA was directly transferred to 384-well PCR plates, to which 5 μL TaqMan universal master mix (Applied Biosystems) and 1 μL oligonucleotide cocktail (15 μmol/L each of forward and reverse primer, and 3-6 μmol/L TaqMan probe) were applied, and PCR was conducted in a PRISM 7900HT (Applied Biosystems), with one cycle of 95° C. for 10 min followed by 45 cycles of 95° C. for 30 sec, 55° C. for 30 sec, and 60° C. for 1 min. Each gene was amplified in separate wells. The cycle threshold (Ct), which was the cycle of PCR to generate certain amounts of PCR products (fluorescence), was determined using analytical software (SDS, Applied Biosystems). PCR was also conducted directly in the GenePlate using an iCycler (BioRad). […] First, heparinized whole blood was incubated with various dietary supplements at 37° C. for 1 hour (2 tubes for each compound). Then one tube was exposed to 1 Gy of ionizing radiation, then both tubes were incubated for another 2 hours at 37° C. The p21 mRNA was quantitated as described above. […] In FIG. 5, each data point is the mean ±standard deviation of p21 mRNA with ([…]) or without (◯) 1 Gy radiation. […] Data points surrounded by a circle indicate p<0.05.

Structure (SMILES) | radiation-induced p21 expression | p21 levels on control blood (no radiation) / background p21 levels
COc1cc(/C=C/C(=O)CC(=O)/C=C/c2ccc(O)c(OC)c2)ccc1O [curcumin] | enhanced | increased
O=C(O[C@@H]1Cc2c(O)cc(O)cc2O[C@@H]1c1cc(O)c(O)c(O)c1)c1cc(O)c(O)c(O)c1 [epigallocatechin gallate] | significantly enhanced | did not show any changes
CCCCC/C=C\C/C=C\C/C=C\CCCCC(=O)O [γ-linoleic acid] | enhanced | increased

From patent publication US20080261207A1, “Method of Measuring Cancer Susceptibility” (priority 2004, published 2008)
